Data as given in US7872036B2, “3-triazolylphenyl sulfide derivative and insecticide, miticide and nematicide containing it as an active ingredient” (Kumiai Chemical Industry Co., Ltd., priority 2004, dated 2011).

Columns and labels:
[1] = tested on: southern root-knot nematodes; test: Nemastatic test on southern root-knot nematodes; format: in vivo, Meloidogyne sp.; conditions: diluted solution 20 ppm mixed 1:1 with suspension of second stage larvae, 25° C., 5 days
Method: Compounds of the present invention (5 parts) and Tween 20 (tradename for polyoxyethylene sorbitan monolaurate) (1 part) as a spreader were dissolved n N,N-dimethylformamide (94 parts) to prepare 5% emulsifiable concentrates of the compounds of the present invention. Distilled water was added to the emulsifiable concentrates to prepare diluted solutions having a concentration of the compounds of the present invention of 20 ppm. 0.5 ml of the diluted solutions and 0.5 ml of water suspensions containing 100 second stage larvae of southern root-knot nematodes were mixed, and the mixture were placed in a thermostatic chamber at 25° C. for 5 days, and the survivors were counted for calculation of the nemastatic degree by using Equation 3. The test was carried out by two series system.

brown planthoppers = test: Insecticidal test on brown planthoppers; format: in vivo, Nilaparvata lugens; conditions: active ingredient 500 ppm, germinating rice immersed, 4th-instar larvae, 25° C., 6 days
Method: Wettable powders were prepared in accordance with Formulation Example 2 and diluted with water to an active ingredient concentration of 500 ppm. Germinating rice was immersed in the resulting solutions and put in a plastic cup with a capacity of 60 ml. Ten 4th-instar larvae of brown planthoppers were released to the cup, and the cup was covered and placed in a thermostatic chamber at 25° C. for 6 days, and the survivors were counted for calculation of the insecticidal degree by using Equation 1. The test was carried out by one series system.

two-spotted spider mites [2] = test: Miticidal test on two-spotted spider mites (by dipping); format: in vivo, Tetranychus urticae; set-up: scale not given here; conditions: dipping of soybean seedlings, active ingredient 500 ppm, 25° C., 13 days
Method: (§1) Wettable powders were prepared in accordance with Formulation Example 2 and diluted with water to an active ingredient concentration of 500 ppm. Soybean seedlings which had been inoculated with imago two-spotted spider mites were dipped in the resulting solutions and dried in air. The treated seedlings were placed in a thermostatic chamber at 25° C. for 13 days, and the mite survivors were counted for calculation of the miticidal value by using Equation 2. The test was carried out by one series system.

two-spotted spider mites [3] = test: Miticidal test on two-spotted spider mites (by soil drenching); format: in vivo, Tetranychus urticae; set-up: scale not given here; conditions: active ingredient 100 ppm, 5 ml per 100 g soil, 25° C., 13 days
Method: as §1, with “100” for “500”, “100 g of the soil in cups with soybean” for “Soybean”, “drenched with 5 ml of” for “dipped in”, “solutions.” for “solutions and dried in air.”, “[…]” for “thermostatic”, “2.” for “2. The test was carried out by one series system.”

Row | SMILES | Nemastatic degree (%) [1] [%] | Insecticidal degree (%) (brown planthoppers) | Miticidal value (two-spotted spider mites [2]) | Miticidal value (two-spotted spider mites [3])
1 | Cc1cc(F)c(-n2nc(SC(F)(F)F)nc2N)cc1SCC(F)(F)F [Compound 31] | 100 | 100 | – | –
2 | Cc1cc(F)c(-n2nc(C(F)(F)F)nc2NC(=O)NC(C)C)cc1[S+]([O-])CC(F)(F)F (racemic) [Compound 202] | – | 100 | 100 | 100
3 | C#CCSc1nc(N)n(-c2cc(SCC(F)(F)F)c(C)cc2F)n1 [Compound 148] | 99 | 100 | – | –
4 | Cc1cc(F)c(-n2nc(SC(F)(F)F)nc2N)cc1[S+]([O-])CC(F)(F)F (stereo not drawn) [Compound 32] | – | 100 | 100 | 100
5 | CC(=O)Nc1nc([S+]([O-])CC(F)(F)F)nn1-c1cc([S+]([O-])CC(F)(F)F)c(C)cc1F (stereo not drawn) [Compound 157] | – | 100 | 100 | 100
6 | CC(=O)Nc1nc(SCC(F)(F)F)nn1-c1cc([S+]([O-])CC(F)(F)F)c(C)cc1F (stereo not drawn) [Compound 155] | – | 90 | 100 | 100
7 | CC(=O)Nc1nc(C(C)(C)C)nn1-c1cc([S+]([O-])CC(F)(F)F)c(C)cc1F (stereo not drawn) [Compound 113] | – | 100 | 100 | 100
8 | Cc1ccc(-n2nc(C(F)(F)F)nc2NC(=O)C(F)(F)F)cc1[S+]([O-])CC(F)(F)F (stereo not drawn) [Compound 153] | – | 100 | 100 | 100
9 | CCc1nc(N)n(-c2cc([S+]([O-])CC(F)(F)F)c(C)cc2F)n1 (stereo not drawn) [Compound 117] | – | 100 | 100 | 100
10 | Cc1cc(F)c(-n2nc(C(C(F)(F)F)C(F)(F)F)nc2N)cc1[S+]([O-])CC(F)(F)F (racemic) [Compound 183] | – | – | 100 | 100
11 | Cc1cc(F)c(-n2nc(S(C)(=O)=O)nc2N)cc1[S+]([O-])CC(F)(F)F (stereo not drawn) [Compound 20] | 92 | 100 | – | –
12 | Cc1cc(F)c(-n2nc(SC(F)F)nc2N)cc1SCC(F)(F)F [Compound 27] | 100 | 100 | – | –
13 | C#CCNc1nc(C(F)(F)F)nn1-c1cc(SCC(F)(F)F)c(C)cc1F [Compound 65] | 100 | 100 | – | –
14 | COC(=O)Nc1nc(C(F)(F)F)nn1-c1cc(SCC(F)(F)F)c(C)cc1F [Compound 79] | 94 | 100 | – | –
15 | CNc1nc(SC(F)(F)C(F)(F)F)nn1-c1cc(SCC(F)(F)F)c(C)cc1F [Compound 101] | 98 | 100 | – | –
16 | CC(=O)Nc1nc(C(F)(F)F)nn1-c1cc([S+]([O-])CC(F)(F)F)c(C)cc1F (stereo not drawn) [Compound 76] | – | 100 | 100 | 100
17 | CNc1nc(SCC(F)(F)F)nn1-c1cc(SCC(F)(F)F)c(C)cc1F [Compound 160] | 100 | 100 | – | –
18 | Cc1cc(F)c(-n2nc(C(F)(F)F)nc2NC(=O)N(C)C)cc1[S+]([O-])CC(F)(F)F (stereo not drawn) [Compound 84] | – | 100 | 100 | 100
19 | N#Cc1ccc(-n2nc(C(F)(F)F)nc2N)cc1[S+]([O-])CC(F)(F)F (stereo not drawn) [Compound 121] | – | – | 100 | 100
20 | Cc1cc(F)c(-n2nc(C(F)(F)F)nc2NC(=O)C(F)(F)Cl)cc1[S+]([O-])CC(F)(F)F (racemic) [Compound 192] | – | 100 | 100 | 100
21 | Cc1cc(F)c(-n2nc(C(C)C)nc2N)cc1[S+]([O-])CC(F)(F)F (stereo not drawn) [Compound 111] | – | 100 | 100 | 100
22 | CCNc1nc(C(F)(F)F)nn1-c1cc([S+]([O-])CC(F)(F)F)c(C)cc1F (stereo not drawn) [Compound 60] | – | 100 | 100 | 100
23 | Cc1ccc(-n2nc(C(F)(F)F)nc2N)cc1SCC(F)(F)F [Compound 124] | 100 | 100 | – | –
24 | C#CCNc1nc(SC(F)(F)C(F)(F)F)nn1-c1cc(SCC(F)(F)F)c(C)cc1F [Compound 193] | 100 | 100 | – | –

Row | SMILES | Nemastatic degree (%) [1] [%] | Insecticidal degree (%) (brown planthoppers) | Miticidal value (two-spotted spider mites [2]) | Miticidal value (two-spotted spider mites [3])
25 | Cc1cc(F)c(-n2nc(SCC#N)nc2N)cc1[S+]([O-])CC(F)(F)F (stereo not drawn) [Compound 141] | 97 | 100 | – | –
26 | Cc1cc(F)c(-n2nc(C(C)(C)C#N)nc2N)cc1[S+]([O-])CC(F)(F)F (stereo not drawn) [Compound 104] | – | – | 100 | 100
27 | Cc1cc(F)c(-n2nc(SC(F)(F)C(F)(F)F)nc2N)cc1[S+]([O-])CC(F)(F)F (racemic) [Compound 177] | – | – | 100 | 100
28 | CNc1nc(C(F)(F)F)nn1-c1cc([S+]([O-])CC(F)(F)F)c(C)cc1Cl (stereo not drawn) [Compound 98] | – | – | 100 | 100
29 | Cc1cc(F)c(-n2nc(C(F)(F)F)nc2N(C)N)cc1SCC(F)(F)F [Compound 170] | 100 | 100 | – | –
30 | CNc1nc(C(F)(F)F)nn1-c1cc(SCC(F)(F)F)c(C)cc1F [Compound 39] | 100 | 100 | – | –
31 | Cc1cc(C)c([S+]([O-])CC(F)(F)F)cc1-n1nc(C(F)(F)F)nc1N (stereo not drawn) [Compound 56] | – | – | 100 | 100
32 | [O-][S+](CC(F)(F)F)c1cc(-n2cnc(C(F)(F)F)n2)ccc1CF (stereo not drawn) [b, reference compound] | – | – | 99 | 0
33 | Cc1cc(F)c(-n2nc([S+](C)[O-])nc2N)cc1SCC(F)(F)F (stereo not drawn) [Compound 17] | 99 | 100 | – | –
34 | Cc1cc(F)c(-n2nc(C(F)(F)F)nc2C#N)cc1SCC(F)(F)F [Compound 209] | 100 | – | – | –
35 | O=Cc1ccc(-n2cnc(C(F)(F)F)n2)cc1[S+]([O-])CC(F)(F)F (stereo not drawn) [a, reference compound] | – | – | 100 | 0
36 | CSc1nc(N)n(-c2cc(SCC(F)(F)F)c(C)cc2F)n1 [Compound 15] | 100 | – | – | –
37 | Cc1cc(F)c(-n2nc(SC(F)(F)C(F)(F)F)nc2N)cc1SCC(F)(F)F [Compound 176] | 97 | 90 | – | –
38 | Cc1cc(F)c(-n2nc(C(F)(F)C(F)(F)C(F)(F)F)nc2N)cc1SCC(F)(F)F [Compound 174] | 100 | 90 | – | –
39 | Cc1cc(F)c(-n2nc(C(F)(F)F)nc2NCC#N)cc1SCC(F)(F)F [Compound 164] | 100 | 100 | – | –
40 | CNC(=O)Nc1nc(C(F)(F)F)nn1-c1cc(SCC(F)(F)F)c(C)cc1F [Compound 168] | 100 | 100 | – | –
41 | CNc1nc(C(F)(F)F)nn1-c1cc([S+]([O-])CC(F)(F)F)c(C)cc1C (stereo not drawn) [Compound 147] | – | – | 100 | 100
42 | CNc1nc(C(F)(F)F)nn1-c1cc(SCC(F)(F)F)c(C)cc1C [Compound 146] | 98 | – | – | –
43 | CCNc1nc(C(F)(F)F)nn1-c1cc(SCC(F)(F)F)c(C)cc1F [Compound 59] | 100 | 100 | – | –
44 | CC[S+]([O-])c1nc(N)n(-c2cc(SCC(F)(F)F)c(C)cc2F)n1 (stereo not drawn) [Compound 23] | 100 | 90 | – | –
45 | Cc1cc(F)c(-n2nc(CC(C)(C)C)nc2N)cc1[S+]([O-])CC(F)(F)F (stereo not drawn) [Compound 107] | – | – | 100 | 100
46 | CC(=O)Nc1nc(C(F)(F)F)nn1-c1cc(SCC(F)(F)F)c(C)cc1F [Compound 75] | 94 | 100 | – | –
47 | Cc1cc(Cl)c(-n2nc(C(F)(F)F)nc2N)cc1[S+]([O-])CC(F)(F)F (stereo not drawn) [Compound 8, [5-(5-amino-3-trifluoromethyl-1,2,4-triazolyl)-4-chloro-2-methylphenyl]2,2,2-trifluoroethyl sulfoxide] | – | – | 100 | 100
48 | Cc1cc(F)c(-n2nc(C(C)(C)C)nc2N)cc1[S+]([O-])CC(F)(F)F (stereo not drawn) [Compound 145] | – | – | 100 | 100
